# Measurements reported in US12016864B2, “LOX enzyme inhibiting methods and compositions” (ANOVIA BIOSCIENCES, INC., priority 2021, dated 2024).
# Molecular target: T1, Bovine lysyl oxidase (LOX) (Bos taurus, UniProt P33072)
# T1 construct: from tissue; host or cells: adult bovine tendon
# T1 sequence (P33072 170-418): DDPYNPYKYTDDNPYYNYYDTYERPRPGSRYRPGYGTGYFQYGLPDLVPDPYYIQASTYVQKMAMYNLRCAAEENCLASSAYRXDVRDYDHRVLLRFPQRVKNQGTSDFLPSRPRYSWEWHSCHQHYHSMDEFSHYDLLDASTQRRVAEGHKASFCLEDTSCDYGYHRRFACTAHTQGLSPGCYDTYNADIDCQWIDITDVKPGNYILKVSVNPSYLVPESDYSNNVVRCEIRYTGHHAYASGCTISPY
# Assay: LOX inhibition assay, fluorometric (cadaverine / HRP / Amplex Red)
# Type: biochemical
# Details: LOX extracted from bovine tendon; 30 min preincubation at 37° C.; 5 mM cadaverine; read-out: Activity Range LOX
# Description: The ability of compounds to inhibit prototypic LOX was determined using a fluorometric assay. This assay measures the activity of lysyl oxidases by coupling the reaction with horseradish peroxidase-catalyzed […]. The activity assay protocol uses cadaverine as substrate that releases hydrogen peroxide upon transformation by prototypic LOX enzyme present in the sample. Hydrogen peroxide was in turn detected using a red fluorescence substrate for HRP-coupled reactions (Amplex Red Enzyme Assays, Thermo Scientific Fisher). This lead to an increase in fluorescence that can be easily detected at Ex/Em=540/590 nm in a fluorescence microplate
# Bovine lysyl oxidase (LOX) was extracted by adapting the methodology from [Kagan et al. 1979 and Borel et al. 2001.] from bovine tendon: Frozen adult bovine tendon was placed in room temperature water to defrost, and then membranes were removed and the remaining tissue cut into 1 cm pieces. The material was first passed through a course mesh meat grinder, and this mince was passed through a fine mesh grinder. The mince was homogenized in 10 v/w of buffer (16 mM sodium phosphate buffer pH 7.8, 400 mM NaCl) using a Waring blender. The homogenate was centrifuged at 15,000×g for 15 min at 4° C. After centrifugation, the supernatant was discarded and the pellets resuspended in 10 volumes of the same buffer. The mixture was blended again and centrifuged with the same settings. This time the pellets were blended in 3 volumes of extraction buffer (16 mM sodium phosphate buffer pH 7.8) and left to incubate at 4° C. for 2 h. After this time, the slurry was centrifuged with the same settings as described above. The supernatant was used in an ultrafiltration step to remove large proteins by size exclusion through a 30 kDalton filter (EMD Millipore). The filtrate was mixed with DEAE Sephadex (GE Healthcare), or passed over a MonoQ FPLC column. After two washes, one in 16 mM sodium phosphate buffer pH 7.8, 380 mM NaCl, and another in 16 mM sodium phosphate buffer pH 7.8, the proteins were eluted with 16 mM sodium phosphate pH 7.8, 10 μM CuSO4, and 4 M urea. Fractions containing Lox activity were collected and stored frozen at −70° C.
# Final concentration in the LOX assay is shown in Table 6 below and performed in a total volume of […].
# 7 μl of freshly prepared reaction buffer were delivered to reaction wells. Compounds were resuspended in 100% DMSO at 10 mM and delivered into buffer using acoustic technology (Echo550; nanoliter range). A 2.85× solution of LOX protein in reaction buffer was prepared (“LOX solution”) and 7 μl of LOX solution was added into the reaction wells. Buffer only was added to column 1 for no protein control. Reactions were incubated for 30 minutes at 37° C. A 3.33× mixture of cadaverine, Amplex Red, and HRP (“Substrate/Detection Mix) was prepared and subsequently 6 μL of the mixture was added to each reaction well. Progress of reactions was monitored for 120 minutes at 37° C. using Clariostar plate reader (ex530-12, ems 600-40). For all activity assays, pan-LOX inhibitor CCT365623 (Tang et al, 2017) and LOXL2/LOXL3 inhibitor PAT-1251 (PharmaKea) were included as standards.
# The slope of the linear portion of the progress curve was calculated using Clariostar software. Typical analysis interval was between 20-50 min, but varied between experiments. The background subtracted signals (No protein wells were considered as background) were converted to % activity relative to DMSO controls. Data was analyzed using GraphPad Prism 4 with “sigmoidal dose-response (variable slope)”; 4 parameters with Hill Slope. Constraints: Bottom=Constant equal to 0. Top=Must be less than 120.
row,SMILES,IC50
1,"NCc1ccnc(S(=O)(=O)C[C@@H]2C[C@H](c3ccccc3)CN2S(=O)(=O)N2CCOCC2)c1 (racemic) [Example 195, Cis-(2-(((1-(Morpholinosulfonyl)-4-phenylpyrrolidin-2-yl)methyl)sulfonyl)pyridin-4-yl)methanamine 2,2,2-trifluoroacetate]",1000 to 30000 nM
2,"NCc1ccnc(S(=O)(=O)C[C@@H]2C[C@H](c3ccccc3)CN2S(=O)(=O)N2CCOCC2)c1 (single isomer, unassigned) [Example 195B]",1000 to 30000 nM
3,"NCc1ccnc(S(=O)(=O)C[C@H]2C[C@@H](c3ccccc3)CN2S(=O)(=O)N2CCOCC2)c1 (single isomer, unassigned) [Example 195A]",1000 to 30000 nM
4,"NCc1ccnc(S(=O)(=O)C[C@@H]2C[C@H](c3ccccc3)CN2S(=O)(=O)N2CCS(=O)(=O)CC2)c1 [Example 196A, 4-(((2S,4R)-2-(((4-(aminomethyl)pyridin-2-yl)sulfonyl)methyl)-4-phenylpyrrolidin-1-yl)sulfonyl)thiomorpholine 1,1-dioxide 2,2,2-trifluoroacetate]",500 to 1000 nM
5,"NCc1ccnc(S(=O)(=O)C[C@@H]2C[C@H](c3ccccc3)CN2S(=O)(=O)N2CCS(=O)(=O)CC2)c1 (racemic) [Example 196, cis-4-((2-(((4-(Aminomethyl)pyridin-2-yl)sulfonyl)methyl)-4-phenylpyrrolidin-1-yl)sulfonyl)thiomorpholine 1,1-dioxide 2,2,2-trifluoroacetate]",1000 to 30000 nM
6,"NCc1ccnc(S(=O)(=O)C[C@H]2C[C@@H](c3ccccc3)CN2S(=O)(=O)N2CCS(=O)(=O)CC2)c1 [Example 196B, 4-(((2R,4S)-2-(((4-(aminomethyl)pyridin-2-yl)sulfonyl)methyl)-4-phenylpyrrolidin-1-yl)sulfonyl)thiomorpholine 1,1-dioxide 2,2,2-trifluoroacetate]",500 to 1000 nM
